Laboratory results reported in publication PMC6588349 (eLife, 2019).
Where two headings read alike, the source gives them in different places.

What was measured:
[1] = biological target: T1, full-length mGluR2 (SNAP-mGluR2) (Rattus norvegicus, UniProt P31421); assay: GIRK activation assay, whole cell patch clamp, HEK 293T cells expressing full-length mGluR2; type: cell-based; conditions: for effect on basal GIRK current in the absence of glutamate: NAM alone, HEK 293T cells expressing GIRK and full-length mGluR2
T1 construct: HEK 293T cells expressing full-length mGluR2; expressed in transfected cells; host or cells: HEK 293T
Protocol: Cells were cultured in DMEM with 5% FBS on poly-L-lysine-coated glass coverslips. DNA plasmids were transfected into cells using Lipofectamine 3000 (Thermo Fisher). […] For single-molecule pulldown (SiMPull) experiments, cells were transfected with 0.7 μg DNA of HA and SNAP-tagged receptor constructs, unless otherwise noted.
Whole-cell patch clamp recordings from single isolated cells were performed 24–36 hr after transfection in a high-potassium extracellular solution containing (in mM): 120 KCl, 29 NaCl, 1 MgCl2, 2 CaCl2 and 10 HEPES, pH 7.4. Cells were voltage clamped to −60 mV using an Axopatch 200B amplifier (Axon Instruments) and membrane currents were recorded. Glass pipettes of resistance between 3 and 8 MΩ were filled with intracellular solution containing (in mM): 140 KCl, 10 HEPES, 3 Na2ATP, 0.2 Na2GTP, 5 EGTA and 3 MgCl2, pH 7.4. Data were acquired with a 2 kHz acquisition rate and filtered with the amplifier 4-pole Bessel filter at 1 kHz. Drugs were prepared in extracellular solution and applied using a gravity-driven perfusion system. Data were analyzed with Clampfit (Molecular Devices) and Prism (GraphPad). Data for all conditions came from at least two separate transfections.

SNAP-mGluR2-TMD-N735D [2] = biological target: T2, SNAP-mGluR2-TMD-N735D (Rattus norvegicus, UniProt P31421, N735D); assay: Inter-TMD FRET assay, N735D mutant; type: cell-based; conditions: SNAP-mGluR2-TMD-N735D; normalized to saturating LY48; read-out: inter-TMD FRET increase EC50, N735D
T2 construct: Following SNAP tag, mGluR2 truncatd to position Q558; N at position 735 replaced with D; expressed in transfected cells; host or cells: HEK 293T
Protocol: (§1) Fluorophores were diluted in EX solution, which was also used to wash coverslips following labeling and prior to mounting on the microscope. After labeling, cells were mounted on an inverted microscope (Olympus IX73) and imaged with a 60x objective. […] Clusters of cells were analyzed together using ImageJ and FRET was calculated as FRET=(IAcceptor)/(IDonor +IAcceptor) where I is fluorescence intensity. No corrections were made for bleed-through between channels or the contribution of donor-donor or acceptor-acceptor dimers as analysis was limited to relative FRET changes between drug treatments rather than absolute FRET values. […] FRET changes calculated for dose–response curves were normalized to the response to saturating […] applied within the same recording and dose–response curves were obtained from multiple cell clusters and averaged from at least three separate experiments. Dose–response curves were fit using Prism (Graphpad). All drugs were purchased from Tocris, prepared in EX solution, and delivered with a gravity-driven perfusion system. For kinetics measurements a pressurized perfusion system (Automate Scientific) was used to produce a flow rate of 0.5 mL/s. Kinetic analysis was performed in Microsoft Excel. The time between 10% and 90% FRET increase or decrease was determined manually. […]

SNAP-mGluR2-TMD-N735D [3] = assay: Inter-TMD FRET assay, N735D mutant; type: cell-based, Rattus norvegicus; conditions: N735D compared to wild-type receptor
Protocol: as §1

[4] = Gramicidin-based fluorescence quench assay for changes of lipid bilayer properties (LUVs); type: physicochemical; conditions: 1 to 10 µM
From the text: To further probe this, we used a fluorescence quench assay for drug-induced changes of lipid bilayer properties ([Ingólfsson and Andersen, 2010]) (Figure 6—figure supplement 3A; see Materials and methods), in which changes in gramicidin channel function is used as a reporter of membrane modification. […] The persistent BINA response is thus consistent with a model where BINA readily partitions into the plasma membrane lipid bilayer (and possibly other lipidic compartments).
The gramicidin-based fluorescence assay has been described previously ([Ingólfsson and Andersen, 2010]). In brief, large unilamellar vesicles (LUVs), loaded with intravesicular ANTS were prepared from DC22:1PC and gramicidin (weight ratio 1000:1, corresponding to a ~ 2000:1 molar ratio) using freeze-drying, extrusion and size-exclusion chromatography; the final lipid concentration was 4–5 mM; the suspension was stored in the dark at 12.5°C for a maximum of 7 days. […] Before use, the LUV-ANTS stock was diluted to 200–250 μM lipid with NaNO3 buffer (140 mM NaNO3, 10 mM HEPES, pH 7).
The NAMs and PAMs (dissolved in DMSO) or DMSO (as control) were added to a LUV-ANTS sample and equilibrated at 25°C in the dark for 10 min. before the mixture was loaded into a stopped-flow spectrofluorometer (Applied Photophysics SX.20, Leatherhead, UK) and mixed with either NaNO3 buffer or TlNO3 buffer; Tl^+ (thallous ion) is a gramicidin channel-permeant quencher of the ANTS fluorescence. Samples were excited at 352 nm and the fluorescence signal above 455 nm was recorded in the absence (four successive trials) or presence (nine successive trials) of the quencher. All the NAM and PAM derivatives fluoresce to varying degrees and addition of these drugs to LUVs in control experiments without gA or Tl^+ increased the fluorescence signal, and each signal was normalized to account for the compound's fluorescence. […] The quench rate (Rate), the rate of Tl^+ influx, was determined at 2 ms: Rate=β/τ0⋅(t/τ0)^β−1|2ms […]

T1 sequence (P31421 19-872): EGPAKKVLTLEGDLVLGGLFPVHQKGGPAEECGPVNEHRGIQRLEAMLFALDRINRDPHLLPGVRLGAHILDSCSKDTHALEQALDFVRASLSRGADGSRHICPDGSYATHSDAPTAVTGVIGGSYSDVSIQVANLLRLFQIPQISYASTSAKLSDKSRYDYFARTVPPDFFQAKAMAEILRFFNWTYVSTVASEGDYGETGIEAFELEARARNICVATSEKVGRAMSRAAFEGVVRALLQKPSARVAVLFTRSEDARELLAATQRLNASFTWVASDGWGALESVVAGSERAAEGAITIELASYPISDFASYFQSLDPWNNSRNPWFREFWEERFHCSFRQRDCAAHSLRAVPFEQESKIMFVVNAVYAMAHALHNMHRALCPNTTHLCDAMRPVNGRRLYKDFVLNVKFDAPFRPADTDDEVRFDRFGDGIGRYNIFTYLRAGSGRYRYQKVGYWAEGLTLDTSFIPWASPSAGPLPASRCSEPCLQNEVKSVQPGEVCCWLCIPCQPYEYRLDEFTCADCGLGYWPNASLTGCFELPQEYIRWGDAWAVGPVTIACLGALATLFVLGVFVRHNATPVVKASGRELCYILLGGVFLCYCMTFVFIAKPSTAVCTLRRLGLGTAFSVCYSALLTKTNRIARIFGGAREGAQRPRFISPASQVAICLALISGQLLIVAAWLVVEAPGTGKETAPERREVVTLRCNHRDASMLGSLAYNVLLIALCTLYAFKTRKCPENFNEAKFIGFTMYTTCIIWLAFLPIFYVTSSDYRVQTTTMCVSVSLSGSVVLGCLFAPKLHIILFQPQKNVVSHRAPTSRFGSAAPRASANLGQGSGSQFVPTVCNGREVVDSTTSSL
T2 sequence (P31421 558-872 N735D): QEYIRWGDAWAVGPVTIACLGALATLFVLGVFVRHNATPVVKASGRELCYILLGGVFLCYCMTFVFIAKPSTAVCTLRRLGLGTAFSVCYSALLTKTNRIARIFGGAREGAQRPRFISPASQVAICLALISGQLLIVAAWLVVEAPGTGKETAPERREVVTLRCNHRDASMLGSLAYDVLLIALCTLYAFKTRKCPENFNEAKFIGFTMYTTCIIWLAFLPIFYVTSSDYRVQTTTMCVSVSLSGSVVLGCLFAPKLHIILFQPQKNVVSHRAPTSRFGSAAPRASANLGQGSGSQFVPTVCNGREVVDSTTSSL

Row | highest concentration that did not produce a GIRK response on its own ([1]; full-length mGluR2) [nM] | reversibility of GIRK currents after washout ([1]; full-length mGluR2, up to 10 min of washout) | EC50 ([1]; mGluR2-WT, read-out: GIRK activation EC50 (approximate)) [nM] | maximal PAM-induced GIRK activation relative to glutamate ([1]; mGluR2-WT, relative to saturating glutamate) | GIRK current time 10% to 90% ([1]; saturating: 10 µM LY48, 1 mM Glutamate) [s] | EC50 ([1]; wild-type SNAP-mGluR2, HEK 293T, PAM alone, normalized to saturating glutamate, mean ± s.e.m., read-out: GIRK activation EC50) [nM] | EC50 (SNAP-mGluR2-TMD-N735D [2]) [nM] | effect on basal GIRK current in the absence of glutamate [1] | effect of co-application on LY48-induced GIRK activation ([1]; co-applied with LY48, saturating concentration for LY341495) | changes in gramicidin channel function (membrane properties) [4] | SMILES | effect on the glutamate-sensitivity of mGluR2 (GIRK) ([1]; 50 nM LY48) | rightward shift of inter-TMD FRET dose-response curve, N735D versus wild-type (SNAP-mGluR2-TMD-N735D [3])
1 | 50 | fully-reversible currents | ~300 | ~ 70% | 14.3 ± 3.5 | 230 ± 40 | 20500 ± 1400 |  |  |  | COc1ccccc1Oc1ccc(N(Cc2cccnc2)S(=O)(=O)CC(F)(F)F)cc1 [LY48] | no effect on the glutamate-sensitivity of mGluR2 | ~ 20 fold
2 |  |  |  |  |  |  |  | no effect on basal current | blocked | do not alter membrane properties | N#Cc1cc(C2=Nc3ccc(Br)cc3NC(=O)C2)ccn1 [MNI 137] |  | 
3 |  |  |  |  |  |  |  | small but clear outward current |  | do not alter membrane properties | Clc1cccc(Cl)c1/C(=C/n1cncn1)OC1CCCCCC1 [Ro 64] |  | 
